Reference: PMC3735853 (Journal of biomolecular screening, 2013)
Read-outs that look alike come from different tables or passages of the source.

Key:
[1] = biological target: hV2R[L^83Q] (Homo sapiens, UniProt P30518, L83Q); experiment: uHTS optimized primary V2R pharmacoperone assay; type: cell-based; settings: for LOPAC Screen Average %Response +/−Std Dev: single concentration of 6 μM (0.4% DMSO), normalized to 100 nM SR121463 (positive) and DMSO (negative), triplicate
[2] = biological target: V2R; settings: cited from earlier work

## CCOc1ccc2c(c1)C1(CCC(OCCN3CCOCC3)CC1)C(=O)N2S(=O)(=O)c1ccc(C(=O)NC(C)(C)C)cc1OC (stereo not drawn) [SR121463]
[1]; no-wash protocol
  lowest level detectable in the assay system: 1 nM
[1]; read-out: EC50 (pharmacoperone rescue), presence of 1 μM vasopressin, no-wash protocol, absence of doxycycline (n=4)
  EC50: 1.97 ± 0.25 nM
[2]; read-out: Ki (antagonist), no reference given
  Ki: ~1 nM
[2]; read-out: Ki of SR121463 (literature value), used to perform the fit
  Ki: 0.94 nM

## C=C[C@@]1(C)CC(=O)[C@]2(O)[C@@]3(C)[C@@H](O)CCC(C)(C)[C@@H]3[C@H](O)[C@H](OC(C)=O)[C@@]2(C)O1 [Forskolin]
[1]
  EC50: 430 nM
  LOPAC Screen Average %Response +/−Std Dev: 104+/−0%

## C[C@H]1CCC/C=C/[C@@H]2C[C@H](O)C[C@H]2[C@H](O)/C=C/C(=O)O1 [Brefeldin A]
[1]
  EC50: 270 nM
  LOPAC Screen Average %Response +/−Std Dev: 43+/−1%

## Cc1ccccc1N1CCN(S(=O)(=O)C[C@]23CC[C@H](C[C@@H]2NC(=O)[C@@H](N)CCS(C)(=O)=O)C3(C)C)CC1 [L-368,899]
[1]
  LOPAC Screen Average %Response +/−Std Dev: 74+/−2%
